# Assay results published in patent US20120329985A1, “Optimal hydolysis conditions of soy protein to produce peptides with lipolysis-stimulating activity and their sequencing and use thereof” (TUNGHAI UNIVERSITY, priority 2011, published 2012).
# Like-named read-outs stand apart in the source and are kept apart here. Where a SMILES comes first, the peptide text is derived from it.
# Columns and labels:
# [1] = tested on: gastrointestinal enzymes (pepsin, pancreatin); conditions: pH 2
# Experimental: (§2) Then adding pepsin with substrate-enzyme ratio at 25:1 and incubating for 4 hours is performed to mimic the environment in stomach. Following the incubation, the solution is neutralized by addition of 2N NaOH and heating some aliquot for 15 minutes to terminate the pepsin activity for freeze storage. The remainder is further incubated with pancreatin with substrate-enzyme ratio at 25:1 for 4 hours to mimic the intestinal environment. After termination of the enzyme activity by heating in boiled water and followed by cooling, the sample is freeze stored for the further analysis.
# (§3) After temperature returned, the each frozen sample processed in the mimic gastrointestinal environment is centrifuged at 10,000×g for 40 minutes. After centrifugation, the supernatant is collected and filtrated through 0.22 μm filter, and added into the culture medium for 3T3-L1 adipocytes. On day 11 post-differentiation, the supernatant or cell extract are collected as the methods described in example 3 and example 7 for measuring the glycerol release and triglyceride residue in the adipocytes. The glycerol release and triglyceride residue in the adipocytes are calculated from the absorption excited by 500 and 520 nm wavelength.
# 3T3-L1 adipocytes [2] = test: Measurement of the triglyceride residue in 3T3-L1 adipocytes; type: cell-based; conditions: 4 ppm fractions and synthetical peptides (FIG. 23)
# Experimental: (§1) The precursor cells of 3T3-L1 cell are purchased from Food Industry Research and Development Institute in Taiwan. The purchased precursor cells of 3T3-L1 adipocytes are cultured in 24-wells plate with 1×10^4 cells/well. The cells are cultured with DMEM (Dulbecco's Modified Eagle Medium) containing 10% FBS (Fetal bovine serum) at 37° C. in the incubator with 5% CO2, and refresh cultured medium every two days. While the 3T3-L1 cells are filled within the culture dish, the culture medium is changed to the differentiation medium (DM) for promoting adipocytes differentiation, which is defined as day 0 post-differentiation. The differentiation medium contains 1.74 μM insulin, […] dexamethasone (DEX) and 0.5 mM isobutyl-methylxanthine (IBMX). From day 2 post-differentiation, the culture medium is exchanged to DMEM with 1.74 μM insulin and refreshed every two days until day 8 post-differentiation. On day 8 post-differentiation, the precursor cells would differentiate into mature 3T3-L1 adipocytes.
# On day 11, the cultured cells are washed with PBS and lysed by adding lysis buffer. The supernatant of cell lysis is collected after centrifugation at 13000 rpm for 10 minutes. 10 μL supernatant of cell lysis is mixed with 1 ml triglyceride detecting kit (TR213) and incubated at room-temperature for 5 minutes. After the incubation, the triglyceride residue in the adipocytes could be calculated according to absorption excited by 500 nm wavelength and shown in FIG. 6. In FIG. 6, control experiment is the cells without treatment of ISP hydrolysate or any fractions.
# [3] = tested on: gastrointestinal enzymes (pepsin, pancreatin); test: Resistance of the synthetical peptides in the mimic gastrointestinal environment; conditions: pepsin 25:1, pH 2.0, 37° C., 4 hours; pancreatin 25:1, 4 hours
# Experimental: as §2, §3
# 3T3-L1 adipocytes [4] = test: Measurement of the glycerol released from 3T3-L1 adipocytes; type: cell-based; conditions: 4 ppm fractions and synthetical peptides (FIG. 22); control basal level 312.3
# Experimental: as §1, with “adipocytes. […]” for “adipocytes.”
# 30 μL of the cultured medium is collected and mixed with detecting kit (GY105) to measure the glycerol release. After reaction at room-temperature for 5 minutes, the absorption excited by 520 nm wavelength is measured by spectrophotometer to calculate the glycerol released from adipocytes.
compound,measurement,setting,value
CC(C)[C@H](N)C(=O)N[C@@H](Cc1c[nH]cn1)C(=O)N[C@H](C(=O)N[C@H](C(=O)O)C(C)C)C(C)C [Val-His-Val-Val] (H-VHVV-OH; N-terminus and C-terminus assumed),Bioactivity for lipolysis after gastrointestinal enzymes,[1],resistant
Ile-Ile-Ile,Effect on triglyceride residue versus control,3T3-L1 adipocytes [2],significantly reduce
CC(C)C[C@H](NC(=O)[C@H](CC(C)C)NC(=O)[C@@H](N)CC(C)C)C(=O)O [Leu-Leu-Leu] (H-Leu-Leu-Leu-OH; N-terminus and C-terminus assumed),Bioactivity for lipolysis after gastrointestinal enzymes,[3],resistant
Ile-Leu-Leu,Glycerol release,3T3-L1 adipocytes [4],540.81 nmol/mg protein
same,Effect on triglyceride residue versus control,3T3-L1 adipocytes [2],significantly reduce
same,Triglyceride residue,3T3-L1 adipocytes [2]; control 3.2,1.41 μmol/mg protein
